Assay results as given in ChEMBL document CHEMBL5126653, “Targeted Degradation of Androgen Receptor for the Potential Treatment of Prostate Cancer” (ACS Med Chem Lett, 2022).

Biological target: Protein cereblon/Androgen receptor (Homo sapiens) (UniProt P10275+Q96SW2)
Test: In vivo protac activity at CRBN/AR in human VCaP cells xenografted in CB17 mouse assessed as increase in Androgen receptor degradation at 10 mg/kg, po for 16 hrs by ELISA
Type: functional, organism-based

Sequence of Protein cereblon/Androgen receptor (Homo sapiens) (P10275 whole entry, looked up): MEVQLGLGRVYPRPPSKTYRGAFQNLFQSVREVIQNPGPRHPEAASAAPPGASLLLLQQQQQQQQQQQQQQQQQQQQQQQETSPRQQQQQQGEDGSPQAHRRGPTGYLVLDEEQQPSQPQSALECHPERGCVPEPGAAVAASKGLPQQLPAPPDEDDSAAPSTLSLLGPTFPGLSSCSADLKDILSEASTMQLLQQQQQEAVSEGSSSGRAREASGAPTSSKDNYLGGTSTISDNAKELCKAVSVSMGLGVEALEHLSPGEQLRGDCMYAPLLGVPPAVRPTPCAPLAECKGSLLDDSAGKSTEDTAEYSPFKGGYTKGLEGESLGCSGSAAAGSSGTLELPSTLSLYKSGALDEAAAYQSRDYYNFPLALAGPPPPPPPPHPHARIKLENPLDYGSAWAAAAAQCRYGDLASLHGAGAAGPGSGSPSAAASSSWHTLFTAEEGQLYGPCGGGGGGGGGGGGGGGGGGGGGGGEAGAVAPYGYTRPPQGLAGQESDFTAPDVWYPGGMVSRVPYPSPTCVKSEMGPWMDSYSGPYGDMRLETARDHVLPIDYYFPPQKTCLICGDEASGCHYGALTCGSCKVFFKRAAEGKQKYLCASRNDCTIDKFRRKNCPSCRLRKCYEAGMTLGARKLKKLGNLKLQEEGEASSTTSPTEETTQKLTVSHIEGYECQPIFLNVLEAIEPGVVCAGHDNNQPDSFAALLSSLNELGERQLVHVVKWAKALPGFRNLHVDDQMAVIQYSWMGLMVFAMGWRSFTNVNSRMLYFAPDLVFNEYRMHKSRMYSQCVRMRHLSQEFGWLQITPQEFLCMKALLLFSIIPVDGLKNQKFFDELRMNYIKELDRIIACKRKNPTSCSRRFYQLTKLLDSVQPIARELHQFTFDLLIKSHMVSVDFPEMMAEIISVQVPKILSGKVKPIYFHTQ
Sequence of Protein cereblon/Androgen receptor (Homo sapiens) (Q96SW2 whole entry, looked up): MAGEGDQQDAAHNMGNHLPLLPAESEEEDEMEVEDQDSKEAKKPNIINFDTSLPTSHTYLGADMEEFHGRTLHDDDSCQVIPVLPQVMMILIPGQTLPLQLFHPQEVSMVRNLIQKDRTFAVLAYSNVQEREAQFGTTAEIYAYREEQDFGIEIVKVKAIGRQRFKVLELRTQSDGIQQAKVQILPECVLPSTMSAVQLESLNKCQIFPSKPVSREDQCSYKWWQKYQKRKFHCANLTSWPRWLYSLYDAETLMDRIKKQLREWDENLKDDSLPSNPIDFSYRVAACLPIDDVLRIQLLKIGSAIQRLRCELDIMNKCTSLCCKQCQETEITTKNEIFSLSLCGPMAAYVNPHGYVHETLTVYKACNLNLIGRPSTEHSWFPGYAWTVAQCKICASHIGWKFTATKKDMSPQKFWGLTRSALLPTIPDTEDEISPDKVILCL

Structure (SMILES): CC1(C)[C@H](NC(=O)c2ncc(N3CCN(CCCCCOc4ccc5c(c4)C(=O)N(C4CCC(=O)NC4=O)C5=O)CC3)cn2)C(C)(C)[C@H]1Oc1ccc(C#N)c(Cl)c1 (stereo not given in full)
- Activity: 1%

Structure (SMILES): CC1(C)[C@H](NC(=O)c2cnc(N3CCC(CN4CCN(c5ccc6c(c5)C(=O)N(C5CCC(=O)NC5=O)C6=O)CC4)CC3)nc2)C(C)(C)[C@H]1Oc1ccc(C#N)c(Cl)c1 (stereo not given in full)
- Activity: < 1%

Structure (SMILES): CC1(C)[C@H](NC(=O)c2ccc(N3CCC(CN4CCN(c5ccc6c(c5)C(=O)N(C5CCC(=O)NC5=O)C6=O)CC4)CC3)nc2)C(C)(C)[C@H]1Oc1ccc(C#N)c(Cl)c1 (stereo not given in full)
- Activity: < 1%

Structure (SMILES): CC1(C)[C@H](NC(=O)c2ccc(N3CCN(CCCOc4ccc5c(c4)C(=O)N(C4CCC(=O)NC4=O)C5=O)CC3)cc2)C(C)(C)[C@H]1Oc1ccc(C#N)c(Cl)c1 (stereo not given in full)
- Activity: < 1%

Structure (SMILES): CC1(C)[C@H](NC(=O)c2ccc(CCCCN3CCN(c4ccc5c(c4)C(=O)N(C4CCC(=O)NC4=O)C5=O)CC3)nc2)C(C)(C)[C@H]1Oc1ccc(C#N)c(Cl)c1 (stereo not given in full)
- Activity: 10%

Structure (SMILES): CC1(C)[C@H](NC(=O)c2cnc(N3CCN(CCCCCOc4ccc5c(c4)C(=O)N(C4CCC(=O)NC4=O)C5=O)CC3)nc2)C(C)(C)[C@H]1Oc1ccc(C#N)c(Cl)c1 (stereo not given in full)
- Activity: < 1%

Structure (SMILES): CC1(C)[C@H](NC(=O)c2ccc(N3CCN(CCCCCOc4ccc5c(c4)C(=O)N(C4CCC(=O)NC4=O)C5=O)CC3)nc2)C(C)(C)[C@H]1Oc1ccc(C#N)c(Cl)c1 (stereo not given in full)
- Activity: < 1%

Structure (SMILES): CC1(C)[C@H](NC(=O)c2ccc(C3CCC(CN4CCN(c5ccc6c(c5)C(=O)N(C5CCC(=O)NC5=O)C6=O)CC4)CC3)cc2)C(C)(C)[C@H]1Oc1ccc(C#N)c(Cl)c1 (stereo not given in full)
- Activity: 1%

Structure (SMILES): CC1(C)[C@H](NC(=O)c2ccc(N3CCN(CC4CCN(c5ccc6c(c5)C(=O)N(C5CCC(=O)NC5=O)C6=O)CC4)CC3)cc2)C(C)(C)[C@H]1Oc1ccc(C#N)c(Cl)c1 (stereo not given in full)
- Activity: 1%

Structure (SMILES): CC1(C)[C@H](NC(=O)c2ccc(N3CCN(CC4CN(c5ccc6c(c5)C(=O)N(C5CCC(=O)NC5=O)C6=O)C4)CC3)cc2)C(C)(C)[C@H]1Oc1ccc(C#N)c(Cl)c1 (stereo not given in full)
- Activity: < 1%
